Measured values reported in US5843889A, “Glycopeptide antibiotic derivatives” (Eli Lilly and Company, priority 1997, dated 1998).
Values after ≈ are worked out from the molar mass of the structure shown.

Key:
Assay in all cases: MIC, standard broth micro-dilution assay
Assay type in all cases: cell-based
[1] = system: Entercoccus gallinarum 245
Procedure: (§1) The formula I compounds have in vitro and in vivo activity against Gram-positive pathogenic bacteria. The MIC's were determined using a standard broth micro-dilution assay.

Entercoccus faecalis 276 = system: Entercoccus faecalis 276
Procedure: as §1

[2] = system: Entercoccus faecalis 2041
Procedure: as §1

Row | SMILES | MIC [1] [µg/mL] | MIC (Entercoccus faecalis 276) [µg/mL] | MIC [2] [µg/mL]
1 | CNC(CC(C)C)C(=O)NC1C(=O)NC(CC(N)=O)C(=O)NC2C(=O)NC3C(=O)NC(C(=O)NC(C(=O)O)c4cc(O)cc(O)c4-c4cc3ccc4O)C(OC3CC(C)(N)C(O)C(C)O3)c3ccc(c(Cl)c3)Oc3cc2cc(c3OC2OC(CO)C(O)C(O)C2OC2CC(C)(NCc3cccc(OCC4CCCCC4)c3)C(O)C(C)O2)Oc2ccc(cc2Cl)C1O (stereo not drawn) [Compound 123, 3-[cyclohexylmethoxy]benzyl] | 1 (≈ 0.557 µM) | 0.25 (≈ 0.139 µM) | ≤ 0.06
2 | CNC(CC(C)C)C(=O)NC1C(=O)NC(CC(N)=O)C(=O)NC2C(=O)NC3C(=O)NC(C(=O)NC(C(=O)O)c4cc(O)cc(O)c4-c4cc3ccc4O)C(OC3CC(C)(N)C(O)C(C)O3)c3ccc(c(Cl)c3)Oc3cc2cc(c3OC2OC(CO)C(O)C(O)C2OC2CC(C)(NCc3cccc(OCc4ccc5ccccc5n4)c3)C(O)C(C)O2)Oc2ccc(cc2Cl)C1O (stereo not drawn) [Compound 125, 3-[2-quinoylmethoxy]benzyl] | 12 (≈ 6.52 µM) | 2 (≈ 1.09 µM) | ≤ 0.06
3 | CCOC(c1ccccc1)c1ccc(CNC2(C)CC(OC3C(Oc4c5cc6cc4Oc4ccc(cc4Cl)C(OC4CC(C)(N)C(O)C(C)O4)C4NC(=O)C(NC(=O)C6NC(=O)C(CC(N)=O)NC(=O)C(NC(=O)C(CC(C)C)NC)C(O)c6ccc(c(Cl)c6)O5)c5ccc(O)c(c5)-c5c(O)cc(O)cc5C(C(=O)O)NC4=O)OC(CO)C(O)C3O)OC(C)C2O)cc1 (stereo not drawn) [Compound 126] | 2 (≈ 1.1 µM) | 1 (≈ 0.55 µM) | ≤ 0.06
4 | CNC(CC(C)C)C(=O)NC1C(=O)NC(CC(N)=O)C(=O)NC2C(=O)NC3C(=O)NC(C(=O)NC(C(=O)O)c4cc(O)cc(O)c4-c4cc3ccc4O)C(OC3CC(C)(N)C(O)C(C)O3)c3ccc(c(Cl)c3)Oc3cc2cc(c3OC2OC(CO)C(O)C(O)C2OC2CC(C)(NCc3ccc(OCCC4CCCCC4)cc3)C(O)C(C)O2)Oc2ccc(cc2Cl)C1O (stereo not drawn) [Compound 127, 4-[cyclohexylethoxy]benzyl] | 4 (≈ 2.21 µM) | ≤ 0.06 | ≤ 0.06
5 | CCCOC(c1ccccc1)c1ccc(CNC2(C)CC(OC3C(Oc4c5cc6cc4Oc4ccc(cc4Cl)C(OC4CC(C)(N)C(O)C(C)O4)C4NC(=O)C(NC(=O)C6NC(=O)C(CC(N)=O)NC(=O)C(NC(=O)C(CC(C)C)NC)C(O)c6ccc(c(Cl)c6)O5)c5ccc(O)c(c5)-c5c(O)cc(O)cc5C(C(=O)O)NC4=O)OC(CO)C(O)C3O)OC(C)C2O)cc1 (stereo not drawn) [Compound 128, 4-[alpha-propoxybenzyl]benzyl] | 2 (≈ 1.09 µM) | 1 (≈ 0.546 µM) | 0.5 (≈ 0.273 µM)
6 | CNC(CC(C)C)C(=O)NC1C(=O)NC(CC(N)=O)C(=O)NC2C(=O)NC3C(=O)NC(C(=O)NC(C(=O)O)c4cc(O)cc(O)c4-c4cc3ccc4O)C(OC3CC(C)(N)C(O)C(C)O3)c3ccc(c(Cl)c3)Oc3cc2cc(c3OC2OC(CO)C(O)C(O)C2OC2CC(C)(NCc3cccc(Oc4ccc(C(F)(F)F)cc4)c3)C(O)C(C)O2)Oc2ccc(cc2Cl)C1O (stereo not drawn) [Compound 132, 3-[4-trifluoromethylphenoxy]benzyl] | 2 (≈ 1.09 µM) | 1 (≈ 0.543 µM) | 1 (≈ 0.543 µM)
7 | CNC(CC(C)C)C(=O)NC1C(=O)NC(CC(N)=O)C(=O)NC2C(=O)NC3C(=O)NC(C(=O)NC(C(=O)O)c4cc(O)cc(O)c4-c4cc3ccc4O)C(OC3CC(C)(N)C(O)C(C)O3)c3ccc(c(Cl)c3)Oc3cc2cc(c3OC2OC(CO)C(O)C(O)C2OC2CC(C)(NCc3ccc(O)cc3)C(O)C(C)O2)Oc2ccc(cc2Cl)C1O (stereo not drawn) [Compound 136, 4-hydroxybenzyl] | 4 (≈ 2.35 µM) | ≤ 0.06 | ≤ 0.06
8 | CNC(CC(C)C)C(=O)NC1C(=O)NC(CC(N)=O)C(=O)NC2C(=O)NC3C(=O)NC(C(=O)NC(C(=O)O)c4cc(O)cc(O)c4-c4cc3ccc4O)C(OC3CC(C)(N)C(O)C(C)O3)c3ccc(c(Cl)c3)Oc3cc2cc(c3OC2OC(CO)C(O)C(O)C2OC2CC(C)(NCc3ccc(-c4ccccn4)cc3)C(O)C(C)O2)Oc2ccc(cc2Cl)C1O (stereo not drawn) [Compound 137, 4-[2-pyridyl]benzyl] | 8 (≈ 4.55 µM) | ≤ 0.06 | ≤ 0.06
9 | CNC(CC(C)C)C(=O)NC1C(=O)NC(CC(N)=O)C(=O)NC2C(=O)NC3C(=O)NC(C(=O)NC(C(=O)O)c4cc(O)cc(O)c4-c4cc3ccc4O)C(OC3CC(C)(N)C(O)C(C)O3)c3ccc(c(Cl)c3)Oc3cc2cc(c3OC2OC(CO)C(O)C(O)C2OC2CC(C)(NCC3CCC(c4ccccc4)C3)C(O)C(C)O2)Oc2ccc(cc2Cl)C1O (stereo not drawn) [Compound 140, 3-phenylcyclopentylmethyl] | 8 (≈ 4.57 µM) | 0.5 (≈ 0.286 µM) | ≤ 0.06
10 | CNC(CC(C)C)C(=O)NC1C(=O)NC(CC(N)=O)C(=O)NC2C(=O)NC3C(=O)NC(C(=O)NC(C(=O)O)c4cc(O)cc(O)c4-c4cc3ccc4O)C(OC3CC(C)(N)C(O)C(C)O3)c3ccc(c(Cl)c3)Oc3cc2cc(c3OC2OC(CO)C(O)C(O)C2OC2CC(C)(NCC34CC5CC(CC(C5)C3)C4)C(O)C(C)O2)Oc2ccc(cc2Cl)C1O (stereo not drawn) [Compound 141, 1-adamantylmethyl] | 4 (≈ 2.3 µM) | 0.5 (≈ 0.287 µM) | ≤ 0.06
11 | CNC(CC(C)C)C(=O)NC1C(=O)NC(CC(N)=O)C(=O)NC2C(=O)NC3C(=O)NC(C(=O)NC(C(=O)O)c4cc(O)cc(O)c4-c4cc3ccc4O)C(OC3CC(C)(N)C(O)C(C)O3)c3ccc(c(Cl)c3)Oc3cc2cc(c3OC2OC(CO)C(O)C(O)C2OC2CC(C)(NCc3ccc(OC)c(OCC4CCCCC4)c3)C(O)C(C)O2)Oc2ccc(cc2Cl)C1O (stereo not drawn) [Compound 142, 3-[cyclohexylmethoxy]-4-methoxybenzyl] | 1 (≈ 0.548 µM) | 1 (≈ 0.548 µM) | ≤ 0.06
12 | CNC(CC(C)C)C(=O)NC1C(=O)NC(CC(N)=O)C(=O)NC2C(=O)NC3C(=O)NC(C(=O)NC(C(=O)O)c4cc(O)cc(O)c4-c4cc3ccc4O)C(OC3CC(C)(N)C(O)C(C)O3)c3ccc(c(Cl)c3)Oc3cc2cc(c3OC2OC(CO)C(O)C(O)C2OC2CC(C)(NCc3ccc(N4CCN(C)CC4)cc3)C(O)C(C)O2)Oc2ccc(cc2Cl)C1O (stereo not drawn) [Compound 146, 4-[4-methylpiperazino]benzyl] | 0.5 (≈ 0.281 µM) | 1 (≈ 0.562 µM) | 0.5 (≈ 0.281 µM)
13 | CNC(CC(C)C)C(=O)NC1C(=O)NC(CC(N)=O)C(=O)NC2C(=O)NC3C(=O)NC(C(=O)NC(C(=O)O)c4cc(O)cc(O)c4-c4cc3ccc4O)C(OC3CC(C)(N)C(O)C(C)O3)c3ccc(c(Cl)c3)Oc3cc2cc(c3OC2OC(CO)C(O)C(O)C2OC2CC(C)(NCc3ccc(S(=O)(=O)c4ccc(Cl)cc4)cc3)C(O)C(C)O2)Oc2ccc(cc2Cl)C1O (stereo not drawn) [Compound 148, 4-[4-chlorophenylsulfonyl]benzyl] | 2 (≈ 1.08 µM) | ≤ 0.06 | ≤ 0.06
14 | CNC(CC(C)C)C(=O)NC1C(=O)NC(CC(N)=O)C(=O)NC2C(=O)NC3C(=O)NC(C(=O)NC(C(=O)O)c4cc(O)cc(O)c4-c4cc3ccc4O)C(OC3CC(C)(N)C(O)C(C)O3)c3ccc(c(Cl)c3)Oc3cc2cc(c3OC2OC(CO)C(O)C(O)C2OC2CC(C)(NCc3ccc(OS(C)(=O)=O)cc3)C(O)C(C)O2)Oc2ccc(cc2Cl)C1O (stereo not drawn) [Compound 149, 4-methylsulfonyloxybenzyl] | 16 (≈ 9.01 µM) | ≤ 0.06 | ≤ 0.06
